Active and inactive are the calls of the source. The rule behind the calls is not given here.
Legend:
Colon 26 [1] = test: Antitumor activity against mouse Colon 26 cells allografted in BALB/c mouse assessed as tumor growth inhibition at 10 umol/kg, iv pretreated for 3 hrs followed by light-emitting diode irradiation at 660 nm wavelength measured after 3 to 7 days by photodynamic therapy; type: functional, organism-based; details: tested as the 10B-labelled form
Muscle tissue = test: Biodistribution in BALB/c mouse muscle allografted with mouse Colon 26 cells at 10 umol/kg, iv measured at 24 hrs by spectrofluorometric analysis; type: ADME, organism-based; details: in vivo
[2] = Solubility of the compound in water; type: physicochemical
Lung = test: Biodistribution in BALB/c mouse lung allografted with mouse Colon 26 cells at 10 umol/kg, iv measured at 24 hrs by spectrofluorometric analysis; type: ADME, organism-based; details: in vivo
Brain = test: Biodistribution in BALB/c mouse brain allografted with mouse Colon 26 cells at 10 umol/kg, iv measured at 24 hrs by spectrofluorometric analysis; type: ADME, organism-based; details: in vivo
Kidney = test: Biodistribution in BALB/c mouse kidney allografted with mouse Colon 26 cells at 10 umol/kg, iv measured at 24 hrs by spectrofluorometric analysis; type: ADME, organism-based; details: in vivo
Tumour [3] = test: Biodistribution in tumor of BALB/c mouse allografted with mouse Colon 26 cells at 10 umol/kg, iv measured at 12 hrs by spectrofluorometric analysis; type: ADME, organism-based; details: in vivo
Spleen = test: Biodistribution in BALB/c mouse spleen allografted with mouse Colon 26 cells at 10 umol/kg, iv measured at 24 hrs by spectrofluorometric analysis; type: ADME, organism-based; details: in vivo
Colon 26 [4] = test: Cytotoxicity against mouse Colon 26 cells assessed as cell viability at 1 to 10 uM after 24 hrs by WST-8 assay; type: cell-based; details: colon 26, 24 h
Zone of skin = test: Biodistribution in BALB/c mouse skin allografted with mouse Colon 26 cells at 10 umol/kg, iv measured at 24 hrs by spectrofluorometric analysis; type: ADME, organism-based; details: in vivo
Liver [5] = test: Biodistribution in BALB/c mouse liver allografted with mouse Colon 26 cells at 10 umol/kg, iv measured at 24 hrs by spectrofluorometric analysis; type: ADME, organism-based; details: in vivo
Serum [6] = test: Biodistribution in BALB/c mouse serum allografted with mouse Colon 26 cells at 10 umol/kg, iv measured at 24 hrs by spectrofluorometric analysis; type: ADME, organism-based; details: in vivo
Tumour [7] = test: Biodistribution in tumor of BALB/c mouse allografted with mouse Colon 26 cells at 10 umol/kg, iv measured at 3 hrs by spectrofluorometric analysis; type: ADME, organism-based; details: in vivo
Serum [8] = test: Biodistribution in BALB/c mouse serum allografted with mouse Colon 26 cells at 10 umol/kg, iv measured at 6 to 12 hrs by spectrofluorometric analysis; type: ADME, organism-based; details: in vivo
Serum [9] = test: Biodistribution in BALB/c mouse serum allografted with mouse Colon 26 cells at 10 umol/kg, iv measured at 3 hrs by spectrofluorometric analysis; type: ADME, organism-based; details: in vivo
Liver [10] = test: Biodistribution in BALB/c mouse liver allografted with mouse Colon 26 cells at 10 umol/kg, iv measured at 1 to 12 hrs by spectrofluorometric analysis; type: ADME, organism-based; details: in vivo
Serum [11] = test: Biodistribution in BALB/c mouse serum allografted with mouse Colon 26 cells at 10 umol/kg, iv measured at 1 hr by spectrofluorometric analysis; type: ADME, organism-based; details: in vivo

Drug uptake (Muscle tissue)	solubility [2] [µg/mL]	Drug uptake (Lung)	Drug uptake (Brain)	Drug uptake (Kidney)	Drug uptake (Tumour [3]) [pmol/mg]	Drug uptake (Spleen)	Drug uptake (Zone of skin)	Drug uptake (Liver [5])	Drug uptake (Serum [6])	Drug uptake (Tumour [7]) [pmol/mg]	Drug uptake (Serum [8])	Drug uptake (Serum [9]) [pmol/mg]	Drug uptake (Liver [10])	Drug uptake (Serum [11]) [pmol/mg]	Structure (SMILES)	TGI (Colon 26 [1])	Activity (Colon 26 [4])
–	–	–	–	–	–	–	–	–	–	–	–	–	–	–	C=Cc1c(C)c2cc3nc(cc4[nH]c(cc5nc(cc1[nH]2)C(C)(O)/C5=C\C=N\OCC)c(C)c4CCC(=O)NC(Cc1ccc(B(O)O)cc1)C(=O)O)C(CCC(=O)NC(Cc1ccc(B(O)O)cc1)C(=O)O)=C3C (configuration not stated)	Active	–
Active	100	Active	Active	Active	0.21	Active	Active	Active	Not Active	–	–	–	–	–	C=Cc1c(C)c2cc3nc(cc4[nH]c(cc5nc(cc1[nH]2)C(C)(O)/C5=C\C=N\OCCCNC(=O)/C=C/c1ccc([10B](O)O)cc1)c(C)c4CCC(=O)N(CC(=O)[O-])CC(=O)[O-])C(CCC(=O)N(CC(=O)[O-])CC(=O)[O-])=C3C.[Na+].[Na+].[Na+].[Na+] (configuration not stated)	–	Non-toxic
Active	100	Active	Active	Active	–	Active	Active	Active	Not Active	0.27	Active	32.2	Active	7.6	C=Cc1c(C)c2cc3nc(cc4[nH]c(cc5nc(cc1[nH]2)C(C)(O)/C5=C\C=N\OCC)c(C)c4CCC(=O)NC(Cc1ccc([10B](O)O)cc1)C(=O)[O-])C(CCC(=O)NC(Cc1ccc([10B](O)O)cc1)C(=O)[O-])=C3C.[Na+].[Na+] (configuration not stated)	–	Non-toxic

From ChEMBL document CHEMBL3120146, “Synthesis and biological evaluation of new boron-containing chlorin derivatives as agents for both photodynamic therapy and boron neutron capture therapy of cancer” (Bioorg Med Chem Lett, 2014)
